Patent publication US12459951B2, “Compounds that interact with RAS superfamily proteins for treatment of cancers, inflammatory diseases, rasopathies, and fibrotic disease” (SHY Therapeutics, LLC, priority 2022, dated 2025)
Read-outs that look alike come from different tables or passages of the source.

Tests used:
[1] = system: Smad2/Smad3 phosphorylation; assay: Phospho-Smad2/3 Inhibition Assay (western blot), Panc-1; format: cell-based, human; conditions: at 10 μM, Panc-1 pancreatic cancer cell line; starred symbols = activation
How it was run: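 Western blotting of lysates (15-50 μg protein) read phosphorylation of Smad2 Ser465/467 and Smad3 Ser423/425. Before lysis, Panc-1 cells got 1 h of 10 ng/ml TGF-b1 following 3 h compound exposure at 37° C (10 μM final, or serial dilutions for IC50, 0.3% DMSO) after overnight 0.5% FBS starvation.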

TNF-alpha = TNF-alpha Quantification Assay (ELISA), LPS-stimulated RAW 264.7; format: cell-based; conditions: Mus musculus, RAW264.7; at 10 μM; read-out: TNFα: % inh.
[2] = system: MiaPaca-2 (expressing KRAS G12C mutant); assay: Proliferation Assay (Cell Viability Assay); format: cell-based; conditions: Homo sapiens, MIA PaCa-2
How it was run: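 After 2–4 days' exposure at 37 °C, 5% CO2 to a single 10 μM final concentration or a dilution series (IC50), percent proliferation inhibition was derived from CellTiter 96 Aqueous One viability readings. The medium contained 0.3% DMSO and 10% FBS. KRAS G12C MiaPaca-2 cells were plated at 2000–5000/well the day before.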

[3] = read-out: Proliferation in MiaPaca-2: IC50
[4] = Proliferation assay, MiaPaca-2, read-out: MiaPaca-2 IC50 (nM) Pancreatic

| Structure (SMILES) | % inh of Smad2/3 phosphorylation in Panc-1 [1] | inhibition at 10 µM (TNF-alpha) | IC50 [2, 3] | IC50 [2, 4] |
| --- | --- | --- | --- | --- |
| COc1cccc(Nc2nc(-c3ccccn3)nn3cc(-c4ccn(C(C)C)n4)c(C)c23)n1 [Compound 14, 6-(1-Isopropyl-1H-pyrazol-3-yl)-N-(6-methoxypyridin-2-yl)-5-methyl-2-(pyridin-2-yl)pyrrolo[2,1-f][1,2,4]triazin-4-amine] | 0 (0 = 0% inhibition) | 0% | > 1000 nM |  |
| COCCNc1nc(-c2nccn2C)nn2cc(-c3cccnc3)c(-c3ccccc3)c12 [Compound 195, N-(2-Methoxyethyl)-2-(1-methyl-1H-imidazol-2-yl)-5-phenyl-6-(pyridin-3-yl)pyrrolo[2,1-f][1,2,4]triazin-4-amine] | A* (A* = 1-25% activation) | 0% | > 1000 nM |  |
| Cc1c(-c2ccn(C)n2)cn2nc(-c3nccn3C)nc(Nc3ccc(-n4ccnc4C)cn3)c12 [Compound 243, 5-Methyl-N-(5-(2-methyl-1H-imidazol-1-yl)pyridin-2-yl)-2-(1-methyl-1H-imidazol-2-yl)-6-(1-methyl-1H-pyrazol-3-yl)pyrrolo[2,1-f][1,2,4]triazin-4-amine] | A* (A* = 1-25% activation) | 0% | < 150 nM |  |
| Cn1ccnc1-c1nc(NS(C)(=O)=O)c2c(-c3ccccc3)c(-c3ccccc3)cn2n1 [Compound 212, N-(2-(1-Methyl-1H-imidazol-2-yl)-5,6-diphenylpyrrolo[2,1-f][1,2,4]triazin-4-yl) methanesulfonamide] | C (C = 46-75% inhibition) | 0% | > 1000 nM |  |
| CO[C@H]1CC[C@@H](Nc2nc(-c3nccn3C)nn3cc(-c4ccncc4)c(-c4ccccc4)c23)C1 (racemic) [Compound 200, rac N-((1R,3S)-3-Methoxycyclopentyl)-2-(1-methyl-1H-imidazol-2-yl)-5-phenyl-6-(pyridin-4-yl)pyrrolo[2,1-f][1,2,4]triazin-4-amine] | A (A = 1-25% inhibition) | 1 to 24% | > 1000 nM |  |
| Cc1c(-c2ccn(C)n2)cn2nc(-c3nccn3C)nc(Nc3cc4c(cn3)CCO4)c12 [Compound 221, N-(5-Methyl-2-(1-methyl-1H-imidazol-2-yl)-6-(1-methyl-1H-pyrazol-3-yl)pyrrolo[2,1-f][1,2,4]triazin-4-yl)-2,3-dihydrofuro[3,2-c]pyridin-6-amine] | A (A = 1-25% inhibition) | 0% | < 150 nM | 1 to 10 nM |
| COc1ccnc(N(C)c2nc(-c3nccn3C)nn3cc(-c4ccn(C)n4)c(C)c23)c1 [Compound 223, N-(4-Methoxypyridin-2-yl)-N,5-dimethyl-2-(1-methyl-1H-imidazol-2-yl)-6-(1-methyl-1H-pyrazol-3-yl)pyrrolo[2,1-f][1,2,4]triazin-4-amine] | B (B = 26-45% inhibition) | 1 to 24% | > 1000 nM |  |
| CO[C@H]1C[C@H](Nc2nc(-c3nccn3C)nn3cc(-c4ccncc4)c(-c4ccccc4)c23)C1 [Compound 199, N-((1r,3r)-3-Methoxycyclobutyl)-2-(1-methyl-1H-imidazol-2-yl)-5-phenyl-6-(pyridin-4-yl)pyrrolo[2,1-f][1,2,4]triazin-4-amine] | B (B = 26-45% inhibition) | 1 to 24% | > 1000 nM |  |
| CCOc1ccc(Nc2nc(-c3nccn3C)nn3cc(-c4ccn(C)n4)c(C)c23)nc1 [Compound 229, N-(5-Ethoxypyridin-2-yl)-5-methyl-2-(1-methyl-1H-imidazol-2-yl)-6-(1-methyl-1H-pyrazol-3-yl)pyrrolo[2,1-f][1,2,4]triazin-4-amine] | A* (A* = 1-25% activation) | 0% | 150 to 500 nM |  |
| COc1ccnc(Nc2nc(-c3nccn3C)nn3cc(-c4ccn(C)n4)c(C(=O)NC4CC4)c23)c1 [Compound 175, N-Cyclopropyl-4-((4-methoxypyridin-2-yl)amino)-2-(1-methyl-1H-imidazol-2-yl)-6-(1-methyl-1H-pyrazol-3-yl)pyrrolo[2,1-f][1,2,4]triazine-5-carboxamide] | B* (B* = 26-45% activation) | 0% | 150 to 500 nM |  |
| COc1ccnc(Nc2nc(-c3nccn3C)nn3cc(-c4ccn(C)n4)c(C(=O)N4CCOCC4)c23)c1 [Compound 179, (4-((4-Methoxypyridin-2-yl)amino)-2-(1-methyl-1H-imidazol-2-yl)-6-(1-methyl-1H-pyrazol-3-yl)pyrrolo[2,1-f][1,2,4]triazin-5-yl)(morpho-lino)methanone] | C* (C* = 46-75% activation) | 0% | > 1000 nM |  |
| CO[C@H]1C[C@H](Nc2nc(-c3nccn3C)nn3cc(-c4cnccc4C)c(-c4ccccc4)c23)C1 [Compound 218, N-((1r,3r)-3-Methoxycyclobutyl)-2-(1-methyl-1H-imidazol-2-yl)-6-(4-methylpyridin-3-yl)-5-phenylpyrrolo[2,1-f][1,2,4]triazin-4-amine] | B* (B* = 26-45% activation) | 1 to 24% | > 1000 nM |  |
| COc1cc(Nc2nc(-c3nccn3C)nn3cc(-c4cccnc4)c(-c4cccnc4)c23)ncn1 [Compound 170, N-(6-Methoxypyrimidin-4-yl)-2-(1-methyl-1H-imidazol-2-yl)-5,6-di(pyridin-3-yl)pyrrolo[2,1-f][1,2,4]triazin-4-amine] | A (A = 1-25% inhibition) | 0% | < 150 nM |  |
| COCCNC(=O)c1c(-c2ccn(C)n2)cn2nc(-c3nccn3C)nc(Nc3cc(OC)ccn3)c12 [Compound 176, N-(2-Methoxyethyl)-4-((4-methoxypyridin-2-yl)amino)-2-(1-methyl-1H-imidazol-2-yl)-6-(1-methyl-1H-pyrazol-3-yl)pyrrolo[2,1-f][1,2,4]triazine-5-carboxamide] | B (B = 26-45% inhibition) | 0% | 510 to 1000 nM |  |
| CO[C@H]1CC[C@H](Nc2nc(-c3nccn3C)nn3cc(-c4ccn(C)n4)c(C(=O)NCCN4CCOCC4)c23)C1 (racemic) [Compound 185, rac 4-(((1S,3S)-3-methoxycyclo-pentyl)amino)-2-(1-methyl-1H-imidazol-2-yl)-6-(1-methyl-1H-pyrazol-3-yl)-N-(2-morpholino-ethyl)pyrrolo[2,1-f][1,2,4]triazine-5-carboxamide] | B* (B* = 26-45% activation) | 25 to 49% | > 1000 nM |  |
| COc1ccnc(Nc2nc(-c3nccn3CCN)nn3cc(-c4ccn(C)n4)c(C)c23)c1 [Compound 188, 2-(1-(2-Aminoethyl)-1H-imidazol-2-yl)-N-(4-methoxypyridin-2-yl)-5-methyl-6-(1-methyl-1H-pyrazol-3-yl)pyrrolo[2,1-f][1,2,4]triazin-4-amine] | B (B = 26-45% inhibition) | 0% | > 1000 nM |  |
| COCC1CCN(c2nc(-c3ccccn3)nn3cc(-c4ccn(C(C)C)n4)c(C)c23)C1 (racemic) [Compound 10, rac 6-(1-Isopropyl-1H-pyrazol-3-yl)-4-(3-(methoxymethyl)pyrrolidin-1-yl)-5-methyl-2-(pyridin-2-yl)pyrrolo[2,1-f][1,2,4]triazine] | A (A = 1-25% inhibition) | 0% | > 1000 nM |  |
| CO[C@H]1C[C@H](Nc2nc(-c3nccn3C)nn3cc(-c4ccc(CN)cc4)c(-c4ccccc4)c23)C1.Cl [Compound 206, 6-(4-(Aminomethyl)phenyl)-N-((1r,3r)-3-methoxycyclobutyl)-2-(1-methyl-1H-imidazol-2-yl)-5-phenylpyrrolo[2,1-f][1,2,4]triazin-4-amine hydrochloride salt] | B (B = 26-45% inhibition) | 1 to 24% | > 1000 nM |  |
| COCCCS(=O)(=O)Nc1nc(-c2nccn2C)nn2cc(-c3ccccc3)c(-c3ccccc3)c12 [Compound 213, 3-Methoxy-N-(2-(1-methyl-1H-imidazol-2-yl)-5,6-diphenylpyrrolo[2,1-f][1,2,4]triazin-4-yl)propane-1-sulfonamide] | B (B = 26-45% inhibition) | 0% | 510 to 1000 nM |  |
| CO[C@H]1CC[C@H](Nc2nc(-c3nccn3C)nn3cc(-c4ccn(C)n4)c(C(=O)NCC(F)(F)F)c23)C1 (racemic) [Compound 181, 4-(((1S,3S)-3-Methoxycyclopentyl)amino)-2-(1-methyl-1H-imidazol-2-yl)-6-(1-methyl-1H-pyrazol-3-yl)-N-(2,2,2-trifluoroethyl)pyrrolo[2,1-f][1,2,4]triazine-5-carboxamide] | A (A = 1-25% inhibition) | 1 to 24% | > 1000 nM |  |
| COc1cc(Nc2nc(-c3nccn3C)nn3cc(-c4ccn(C)n4)c(C)c23)ncc1C [Compound 235, N-(4-Methoxy-5-methylpyridin-2-yl)-5-methyl-2-(1-methyl-1H-imidazol-2-yl)-6-(1-methyl-1H-pyrazol-3-yl)pyrrolo[2,1-f][1,2,4]triazin-4-amine] | 0 (0 = 0% inhibition) | 0% | < 150 nM | 1 to 10 nM |
